The source of these data is a melting point compilation (Tetko et al.; mined from patent text by program, amines drawn as free bases though some values may be those of a salt).

Each structure is given as a SMILES string.

As for `COc1cc(C(=O)OCCCCBr)ccc1O`, the melting point (as a rule, the temperature, or range, at which the solid turns liquid) was 83 to 88 °C.

For `N#CC(=O)c1ccc(Cl)c(Cl)c1`, the melting point is 70 to 71 °C.

With `ON=C(Cn1cncn1)c1ccc(Cl)cc1Cl`, the melting point stood at 117 °C.

Regarding `O=C(O)CC(C(=O)NC(CO)Cc1ccccc1)C1(c2ccc(-c3ccccc3)cc2)C=CNC1` (centres undefined), the melting point is 151 to 154 °C.

The compound `Cc1c(Cl)nc2sc(S(=O)(=O)Cc3ccccc3)nn2c1=O` registered a melting point of 211 to 213 °C.

On to `CC(C)(C(=O)O)c1nc2ccc(NCCCN3CCN(C(c4ccccc4)c4ccccc4)CC3)nn2c1Cl`, for which the melting point lay in the range of 184 to 186 °C.

Regarding `Cc1nc(N)n(C)c(=O)c1CCN1CCN(c2noc3ccccc23)CC1`, the melting point came out at 201 °C.

Regarding `Cc1nc2c(N)nc3ccccc3c2n1CCCOCCCc1ccccc1`, the melting point was 145 to 146 °C.

`COc1c(Cl)c(OC)c2cnoc2c1Cl`: the melting point was 138 to 140 °C.

In turn, `COC(=O)c1cc(C(=O)c2c(C)c(-c3cccc(OCC(=O)O)c3)c3ccccn23)ccc1N` had a melting point of 160 °C.

The compound `CS(=O)(=O)N(c1ccccc1)C1CCN(Cc2ccccc2)CC1` showed a melting point of 125 °C.

With `O=c1oc2c(OCc3nnn[nH]3)c(O)c(OCc3nnn[nH]3)c(O)c2c2c1CCCC2`, the melting point was in the range of 283 to 286 °C.

`c1ccc(C2CCN=C(c3csnn3)N2)cc1` (centres undefined) came in with a melting point of 158 °C.

As for `C[Si](C)(C)C#Cc1ccc(C2=CC(c3ccc(C#C[Si](C)(C)C)cc3)N(c3ccccc3)N2)cc1` (centres undefined), the melting point lay in the range of 108 to 110 °C.

For `O=S(=O)(O)c1nc2cc(Cl)c(Cl)cc2[nH]1`, the melting point was in the range of 353 to 354 °C.

In turn, `CCC(C)S(=O)(=O)c1cc(C(F)(F)F)ccc1C(=O)c1cnoc1C1CC1` (centres undefined) yielded a melting point of 89 to 91 °C.

Turning to `O=C(c1ccccc1)c1ccc(-c2ccc(-c3ccc(-c4ccc(C(=O)c5ccccc5)s4)s3)s2)s1`, the melting point was 307 to 310 °C.

Take `CCCCCCCCCC(=O)c1ccc(OCc2ccc(C=C3SC(=S)NC3=O)cc2)c(CCC)c1O`: the melting point is 188 °C.

`CCCNC(=N)Nc1nc2ccc(OC(F)(F)F)cc2s1` registered a melting point of 110 to 111 °C.

Consider `CCN(CC)CCOc1ccc(Nc2ncc3c(n2)N(C(C)C)C(=O)N(c2c(Cl)cccc2Cl)C3)cc1`, for which the melting point amounted to 125 °C.

The compound `OC1CSC(Oc2cc(F)cnc2Cl)C(O)C1O` (centres undefined) yielded a melting point of 143 °C.

Regarding `NS(=O)(=O)c1cccc2cc[nH]c12`, the melting point was 125 to 127 °C.

As for `CCOC(=O)C(=CNc1nnc(C)s1)C(=O)c1cc(F)c(F)cc1F`, the melting point fell in the range of 147 to 151 °C.

Compound `O=C1NC(=S)SC1=Cc1ccc(COc2ccccc2CCc2ccccc2)cc1` displayed a melting point of 162 to 163 °C.

For the compound `CNC(=O)c1cc(-c2ccc(OC)c(Cl)c2)nn(CC(C)C)c1=O`, the melting point fell in the range of 182 to 184 °C.

`OC(COc1ccccc1Br)C(Cl)(Cl)Cl` (centres undefined) registered a melting point of 88 to 90 °C.

In turn, `CC1CC(=O)NN=C1c1ccc(-n2ccc(CO)c2)cc1` (centres undefined) gave a melting point of 184 to 186 °C.

`CN(CC1COc2ccccc2O1)S(N)(=O)=O` (centres undefined): the melting point lay in the range of 97 to 98 °C.

On to `COC(=O)C[C@H]1C[C@H](C(=O)O)Nc2cc(Cl)cc(Cl)c21` (relative stereo), for which the melting point is 181 to 182 °C.

Consider `CC1(C)COC(=O)N1c1nc(-c2ccc(C#N)cc2)cs1`, for which the melting point fell in the range of 183 to 185 °C.

In turn, `O=C(Nc1ccccc1)OCC1CSC2=C(O1)c1ccccc1C(=O)C2=O` (centres undefined) had a melting point of 250 to 252 °C.

With `Clc1cc(CBr)ccc1-c1ccccc1C1=NNN(C(c2ccccc2)(c2ccccc2)c2ccccc2)N1`, the melting point is 15 to 60 °C.

Turning to `CN1CCN(C2=Nc3ccccc3Cc3nccn32)CC1`, the melting point was in the range of 123 to 124 °C.

Turning to `CCOC(=O)c1[nH]c2ccc(C[C@H]3COC(=O)N3)cc2c1CCN(C)C`, the melting point lay within 49 to 55 °C.
